Reference: US20260182575A1, “MOLECULES HAVING PESTICIDAL UTILITY AND INTERMEDIATES AND PROCESSES RELATED THERETO” (CORTEVA AGRISCIENCE LLC, priority 2022, published 2026)

What was measured:
Format in all cases: in vivo
[1] = test system: Fall Armyworm (Spodoptera frugiperda, LAPHFR, FAW); experiment: Bioassay 4: fall armyworm, artificial diet, 128-cell tray; conditions: AI alone, 0.000004 wt %
Experimental: (§1) Stock solutions were prepared with F1 as well as for each of the active ingredients individually. Test solutions were prepared from the stock solutions. Test solutions were prepared containing F1, the individual active ingredients, and mixtures of F1 with each of the active ingredients. The test solution for F1 was prepared by adding 500 μL of the stock solution to a 25 mL glass vial, then adding 500 μL of a 9:1 mixture of acetone:water. The individual active ingredients were prepared by adding 500 μL of stock solution to a 25 mL glass vial, then adding 500 μL of a 9:1 mixture of acetone:water. The test solutions containing mixtures of F1, and the individual active ingredients were prepared by adding 500 μL of the active ingredient stock solution to a 25 mL glass vial, followed by 500 μL of the F1 stock solution, creating a test solution containing 0.04% (w/v) of F1 and 0.4% (w/v) of the active ingredient. Each test solution was serially diluted to create desired doses of test solutions (F1 at 0.04% (w/v), 0.004% (w/v), 0.0004% (w/v), 0.00004% (w/v), 0.000004% (w/v), and 0.0000004% (w/v) and active ingredients at 0.4% (w/v), 0.04% (w/v), 0.004% (w/v), 0.0004% (w/v), 0.00004% (w/v), and 0.000004% (w/v)).
(§2) The test solutions were tested against CEW, FAW, and SBL using the following procedure: an artificial lepidopteran diet (Multispecies Lepidopteran Diet, Southland Products) was distributed in 128-cell bioassay trays (Frontier Agricultural Sciences™). 50 μL of test solution was pipetted into a cell in the bioassay tray. (The test solution doses of 0.04% (w/v), 0.004% (w/v), 0.0004% (w/v), 0.00004% (w/v), 0.000004% (w/v), and 0.0000004% (w/v) translated to concentrations of 5, 0.5, 0.05, 0.005, 0.0005, and 0.00005 μg/cm^2 on the diet, respectively.) A reference treatment (solvent check) was treated with the diluent only. Each treatment was replicated 8 times for each species. A 2nd instar CEW, FAW, or SBL larva was placed on top of the diet in each cell and was contained with a clear perforated adhesive lid. Test trays were held at approximately 26° C. and ambient relative humidity (RH) prior to grading.
(§3) After 5 days, the number of live larvae were recorded from each cell and percent control was measured using Abbott's correction formula (W. S. Abbott, J. Econ. Entomol. 18 (1925), pp. 265-267) as follows:
(§4) where X=No. of live larvae on solvent check and Y=No. of live larvae on treated diet. In Table B4 the “Expected % Control” was calculated using the method described in Colby S. R., Weeds, 1967, 15, 20-22. Bioassay 5: Neotropical Brown Stink Bug (Euschistus heros, EUSCHE, “BSB”).

[2] = test system: Soybean Looper (Chrysodeixis includens, PSEPIN, SBL); experiment: Bioassay 4: soybean looper, artificial diet, 128-cell tray; conditions: AI alone, 0.000004 wt %
Experimental: as §1, §2, §3, §4

[3] = test system: Green Peach Aphid (Myzus persicae, MYZUPE, GPA); experiment: Bioassay 1: green peach aphid, cabbage seedling foliar spray; conditions: AI alone at the rate of Wt Ratio F1:AI 1:10256 (F1 0.04), 3 days
Experimental: Bioassay 1: Green Peach Aphid (Myzus persicae, MYZUPE, “GPA”).
Stock solutions of F1 and various active ingredients were prepared initially at a concentration of 4 milligrams per milliliter (mg/mL) for F1 and 0.1 mg/mL for the active ingredients, respectively, using a 1:1 mixture of acetone:methanol as a diluent. Stock solutions were prepared with F1 as well as for each of the active ingredients individually. Test solutions were prepared from the stock solutions. Test solutions were prepared containing F1, the individual active ingredients, and mixtures of F1 with each of the active ingredients. The test solutions for F1 and the individual active ingredients were prepared by adding 750 microliters (μL) of stock solution to a 25 mL glass vial, then adding 750 μL of 1:1 acetone:methanol solvent, followed by the addition of 13.5 mL water with 0.025% Tween® 20 to create a 0.0005% (weight/volume (w/v)) solution. The test solutions containing mixtures of F1, and the individual active ingredients were prepared by adding 750 μL of the active ingredient stock solution to a 25 mL glass vial, followed by 750 μL of the F1 stock solution, then by the addition of 13.5 mL water with 0.025% Tween® 20 to create a test solution containing 0.0005% (w/v) F1 and 0.0005% (w/v) of the active ingredient. Each test solution was serially diluted to create desired doses of test solutions (0.0005% (w/v), 0.000125% (w/v), 0.00003125% (w/v), 0.0000078% (w/v), 0.00000195% (w/v), and 0.0000005% (w/v)). In test solutions containing mixtures of F1 and the active ingredients, the active ingredients were diluted as described above, but the concentration of F1 was held constant (0.04% (w/v)).
The test solutions were tested against GPA using the following procedure: cabbage seedlings, grown in 3-inch pots with 2-3 small (3-5 centimeter (cm)) true leaves, were used as test substrate. The seedlings were infested with 20-50 GPA (wingless adult and nymph stages) one day prior to chemical application. Four pots with individual seedlings were used for each treatment. A hand-held aspirator-type sprayer was used for spraying a solution to both sides of […] leaves until runoff. Reference plants (solvent check) were sprayed with the diluent only (0.025% Tween® 20 and 10% acetone:methanol (1:1) in water). Treated plants were held in a holding room for three days at approximately 25° C. and ambient relative humidity (RH about 20% to about 45%) prior to grading. Evaluation was conducted by counting the number of live aphids per plant under a microscope three days after treatment. Percent control was measured using Abbott's correction formula (W. S. Abbott, J. Econ. Entomol. 18 (1925), pp. 265-267) as follows:
where X=No. of live aphids on solvent check plants and Y=No. of live aphids on treated plants. In Table B1 the “Expected % Control” was calculated using the method described in Colby S. R., Weeds, 1967, 15, 20-22. Bioassay 2: Sweet Potato Whitefly (Bemisia tabaci, BEMITA, “SPW”).

[4] = test system: Corn Earworm (Helicoverpa zea, HELIZE, CEW); experiment: Bioassay 4: corn earworm, artificial diet, 128-cell tray; conditions: AI alone
Experimental: as §1, §2, §3, §4

[5] = test system: Soybean Looper (Chrysodeixis includens, PSEPIN, SBL); experiment: Bioassay 7: soybean looper, artificial diet, 96 well plate; conditions: CL
Experimental: (§5) The test solutions were tested against CEW, FAW, BAW, and SBL using the following procedure: an artificial lepidopteran diet (Multispecies Lepidopteran Diet, Southland Products) was distributed in 96 well plate. Twenty μL of test solution was pipetted onto a cell in the bioassay plate. […] Each treatment was replicated 5 times for each species. Approximately five first instar CEW, FAW, BAW, or SBL larva were placed on top of the diet in each cell and was contained with a clear perforated adhesive lid. Test trays were held at approximately 25° C. and ambient relative humidity prior to grading. After five days, the number of cells where all the larvae were dead were recorded as 100% and averaged across all replicates; then the percent control was measured using Abbott's correction formula (W. S. Abbott, J. Econ. Entomol. 18 (1925), pp. 265-267) as follows:
(§6) where X=No. of live larvae on solvent check and Y=No. of live larvae on treated diet. In Table 7 the “Expected % Control” was calculated using the method described in Colby S. R., Weeds, 1967, 15, 20-22. Bioassay 8: Western Corn Rootworm (Diabrotica virgifera virgifera, DIABVI, “WCR”)

[6] = test system: Beet Armyworm (Spodoptera exigua, LAPHEG, BAW); experiment: Bioassay 7: beet armyworm, artificial diet, 96 well plate
Experimental: as §5, §6

[7] = test system: Fall Armyworm (Spodoptera frugiperda, LAPHFR, FAW); experiment: Bioassay 7: fall armyworm, artificial diet, 96 well plate
Experimental: as §5, §6

[8] = test system: Corn Earworm (Helicoverpa zea, HELIZE, CEW); experiment: Bioassay 7: corn earworm, artificial diet, 96 well plate
Experimental: as §5, §6

[9] = test system: Sweet Potato Whitefly (Bemisia tabaci, BEMITA, SPW); experiment: Bioassay 2: sweet potato whitefly, cotton seedling foliar spray; conditions: AI alone
Experimental: Stock solutions were prepared with F1 as well as for each of the active ingredients individually. Test solutions were prepared from the stock solutions. Test solutions were prepared containing F1, the individual active ingredients, and mixtures of F1 with each of the active ingredients. The test solutions for F1 and the individual active ingredients were prepared by adding 500 μL of stock solution to a 25 mL glass vial, then adding 500 μL of acetone, followed by the addition of 9 mL water with 0.025% Tween® 20 to create a 0.001% (w/v) solution. The test solutions containing mixtures of F1, and the individual active ingredients were prepared by adding 500 μL of the active ingredient stock solution to a 25 mL glass vial, followed by 500 μL of the F1 stock solution, then by the addition of 9 mL water with 0.025% Tween® 20 to create a test solution containing 0.001% (w/v) F1 and 0.001% (w/v) of the active ingredient. Each test solution was serially diluted to create desired doses of test solutions (0.001% (w/v), 0.0001% (w/v), 0.00001% (w/v), 0.000001% (w/v), 0.0000001% (w/v), and 0.00000001% (w/v)).
The test solutions were tested against SPW using the following procedure: Cotton seedlings grown in 3-inch pots, pruned so that only one true leaf remained, were used as test substrate. Adult B. tabaci were allowed to colonize the cotton plants and lay eggs for 24 hours after which all adults were removed from the plants using compressed air. Plants were monitored for egg development, and when crawler emergence was underway (>25% emergence based on visual examination using a microscope), the plants were sprayed using the test solutions and methods described above for green peach aphids (GPA). Treated plants were held in a holding room at approximately 25° C. and ambient relative humidity (RH) prior to grading. Evaluation was conducted by counting the number of developed 2-3 instar nymphs per plant under a microscope 7-9 days after treatment. Percent control was measured using Abbott's correction formula (W. S. Abbott, J. Econ. Entomol. 18 (1925), pp. 265-267) as follows:
where X=No. of live nymphs on solvent check plants and Y=No. of live nymphs on treated plants. In Table B2 the “Expected % Control” was calculated using the method described in Colby S. R., Weeds, 1967, 15, 20-22. Bioassay 3: Western Flower Thrips (Frankliniella occidentalis, FRANOC, “WFT”).

Row | Compound | Average % Control AI ([5]; AI alone at 0.4 wt %) [%] | Average % Control AI ([6]; AI alone at 0.4 wt %) [%] | Average % Control AI ([7]; AI alone at 0.4 wt %) [%] | Average % Control AI ([8]; AI alone at 0.4 wt %) [%] | further results
1 | O=[N+]([O-])/N=C1\NCCN1Cc1ccc(Cl)nc1 [Imidacloprid] | – | – | – | – | Average % Control AI [1]: 0.0%; Average % Control AI [2]: 12.5%; Average % Control AI [3]: 40.5%; Average % Control AI ([4]; 0.000004 wt %): 0.0%; Average % Control AI ([4]; 0.00004 wt %): 0.0%
2 | CC(C)c1ccc(Cl)cc1CN(C(=O)c1c(C(F)F)nn(C)c1F)C1CC1 [Isoflucypram] | 0.0 | 0.0 | – | – | –
3 | CON(C(=O)c1cn(C)nc1C(F)F)C(C)Cc1c(Cl)cc(Cl)cc1Cl (stereo not drawn) [Pydiflumetofen] | 0.0 | 0.0 | 0.0 | – | –
4 | CO/C=C(/C(=O)OC)c1ccccc1COc1cccc(C(F)(F)F)n1 [Picoxystrobin] | – | – | – | – | Average % Control AI ([8]; AI alone at 0.04 wt %): 0.0%; Average % Control AI ([5]; AI alone at 0.04 wt %): 0.0%; Average % Control AI ([6]; AI alone at 0.04 wt %): 0.0%
5 | O=S(=O)(CCC(F)=C(F)F)c1ncc(Cl)s1 [Fluensulfone] | 12.5 | 0.0 | 0.0 | 0.0 | –
6 | Cc1cc(C)c(C2=C(OC(=O)CC(C)(C)C)C3(CCCC3)OC2=O)c(C)c1 [Spiromesifen] | 12.5 | 12.5 | 12.5 | – | –
7 | CCNc1nc(CC)c(C(=O)NC(C#N)c2cccs2)s1 (stereo not drawn) [Ethaboxam] | 0.0 | – | 0.0 | 12.5 | –
8 | Cc1cc(C(F)(F)F)nn1CC(=O)N1CCC(c2nc(C3=NOC(c4c(F)cccc4F)C3)cs2)CC1 (stereo not drawn) [Oxathiapiprolin] | 0.0 | – | – | 0.0 | –
9 | Trifloxystrobin | – | 20.0 | 16.6 | 0.0 | –
10 | CNC(=O)O/N=C(\SC)C(=O)N(C)C [Oxamyl] | 0.0 | 0.0 | 0.0 | 0.0 | –
11 | COc1ccc(Cl)c(S(=O)(=O)NC(=O)c2cn3cc(C(F)(F)F)cc(Cl)c3n2)c1 [Fluazaindolizine] | 0.0 | – | 0.0 | 0.0 | –
12 | CC(C)C1CCC(Cc2ccc(Cl)cc2)C1(O)Cn1cncn1 (stereo not drawn) [Ipconazole] | – | 0.0 | 0.0 | 0.0 | –
13 | O=c1c(-c2cccc(C(F)(F)F)c2)c([O-])[n+](Cc2cncnc2)c2ccccn12 [Triflumezopyrim] | – | – | – | – | Average % Control AI ([9]; Wt % AI 0.000001, 7-9 days): 10.1%; Average % Control AI ([9]; Wt % AI 0.00001, 7-9 days): 31.4%; Average % Control AI [1]: 0.0%; Average % Control AI [2]: 12.5%; Average % Control AI ([4]; 0.000004 wt %): 0.0%; Average % Control AI ([4]; 0.00004 wt %): 0.0%
14 | CN(C(=O)c1ccccc1)c1cccc(C(=O)Nc2c(Br)cc(C(F)(C(F)(F)F)C(F)(F)F)cc2C(F)(F)F)c1F [Broflanilide] | – | – | – | – | Average % Control AI ([7]; AI alone at 0.004 wt %): 0.0%
